The values that follow come from US12673041B2, “4-aminobut-2-enamide derivatives and salt thereof” (TAIHO PHARMACEUTICAL CO., LTD., priority 2019, dated 2026).

Read-outs that look alike come from different tables or passages of the source.

For assay [1], the target named is T1, GMPPNP-bound KRAS G12C protein and cRAF RAS-binding domain (cRAF-RBD) (Homo sapiens, UniProt P01116, G12C).
T1 construct: made in house; host or cells: E. coli
The experiment in a line: Inhibitory activity on interaction between KRAS G12C and cRAF (Alpha technology). The format is biochemical. The conditions noted are these: GMPPNP-bound KRAS G12C incubated with compound at 25° C. for 1 hour, then cRAF-RBD, Alpha signal; read-out: IC50. In a few lines: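 GMPPNP-loaded His-KRAS G12C (aa 1-169) preincubated 1 h at 25 °C with compound (pH 7.5 Tris, 1 mM MgCl2, TCEP, Tween 20), then cRAF-RBD (aa 50-132) and Alpha reagents added for 1.5 h at RT. Inhibition scaled between DMSO (0%) and GDP-bound KRAS (100%); IC50 by curve fitting.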

Assay [2] addresses T2, activated KRAS in MIA PaCa-2 (Homo sapiens, UniProt P01116, G12C).
T2 construct: host or cells: MIA PaCa-2
Description: Amount of activated KRAS on KRAS-G12C mutant cell line MIA PaCa-2 (Ras GTPase Chemi ELISA). Type of assay: cell-based. The conditions noted are these: for IC50: 1 hour with compound. As to the method: NCI-H358 [H358, H358] (ATCC® CRL5807™), which is a KRAS-G12C mutant human lung cancer cell line, and MIA PaCa-2 (ATCC® CRL-1420™), which is a KRAS-G12C mutant human pancreas cancer cell line, were suspended in a 10% fetal bovine serum-containing RPMI1640 medium (manufactured by Thermo Fischer SCIENTIFIC), respectively. The cell suspension was seeded into a cell culture plate and cultured in an incubator containing 5% CO2 gas at 37° C. for 1 day. The lyophilized recombinant human EGF protein (R&D systems, Cat #: 236-EG-200) was dissolved in PBS to make 0.5 mg/ml solution. The EGF solution in PBS was diluted by 0.4% with the medium used for suspending cells and added to each cell-culture plate to give an EGF final concentration of 100 ng/ml, followed by leaving to stand at ambient temperature for 5 minutes. Then, the compounds obtained in the “Preparation of Compounds” section were used as test compounds and were dissolved in DMSO, and each test compound was diluted with DMSO to give a concentration 200 times the final concentration. The solution of the test compound in DMSO was diluted with the medium used for suspending cells and added to each well of the cell-culture plate to give a DMSO final concentration of 0.5%, followed by culture in an incubator containing 5% CO2 gas at 37° C. for another 1 hour. The amount of activated KRAS after 1 hour culture in the presence of the compound was measured using Ras GTPase Chemi ELISA Kit (manufactured by Active Motif). The ratio of KRAS activity was calculated from the following equation, and the concentration of the test compound at which activity was suppressed to 50% (IC50 (μM)) was determined. […] The Ratio of KRAS activity to control (%)=(T−BG)/(C−BG)×100 • T: the emission intensity in a well into which a test compound was added. • C: the emission intensity in a well into which a test compound was not added. • BG: the emission intensity in a well into which neither a test compound nor a cell suspension was added.

The mark [3] stands for this setting: MIA PaCa-2, with EGF 100 ng/ml, read-out: IC50 MIA PaCa-2 with EGF.
The mark [4] stands for this setting: MIA PaCa-2, without EGF, read-out: IC50 MIA PaCa-2 without EGF.

T2 sequence (P01116 1-188 isoform P01116-2 G12C): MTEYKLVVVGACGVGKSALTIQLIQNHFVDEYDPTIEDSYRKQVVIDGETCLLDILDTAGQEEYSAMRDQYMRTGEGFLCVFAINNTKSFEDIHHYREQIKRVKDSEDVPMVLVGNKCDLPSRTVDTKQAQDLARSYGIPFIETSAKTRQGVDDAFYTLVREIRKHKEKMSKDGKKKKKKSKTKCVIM
T1 sequence (P01116 with tags, fused parts or gaps isoform P01116-2 G12C): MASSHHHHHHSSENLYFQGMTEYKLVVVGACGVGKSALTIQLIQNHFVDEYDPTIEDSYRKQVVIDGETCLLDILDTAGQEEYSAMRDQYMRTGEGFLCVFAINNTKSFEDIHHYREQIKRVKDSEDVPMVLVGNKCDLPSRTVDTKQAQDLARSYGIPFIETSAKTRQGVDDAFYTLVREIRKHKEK

As to `C=CC(=O)N1CCN(c2ncnc3c(F)c(-c4c(O)cccc4F)c(Cl)cc23)CC1` [ARS-1620, reference compound], the IC50 in assay [1] was over 67000 nM; in assay [2] (setting [3]), 4200 nM; in assay [2] (setting [4]) it was 650 nM. The “KRAS inhibition activity under EGF treatment” value in assay [2] (MIA PaCa-2, EGF treatment) is “attenuated by EGF treatment”.
For the compound `CCc1nc2cc(-c3cccc(NC(=O)c4ccc(NC(=O)/C=C/CN[C@H]5CC[C@H](OC)CC5)c(C#N)c4)c3)c(C(F)(F)F)cc2n1C` [Example 1, 3-cyano-N-(3-(2-ethyl-1-methyl-6-(trifluoromethyl)-1H-benzo[d]imidazol-5-yl)phenyl)-4-((E)-4-(((1r, 4r)-4-methoxycyclohexyl)amino)but-2-enamido)benzamide], the IC50 in assay [1] turned out to be 180 nM; in assay [2] (setting [3]) it was 1000 nM; in assay [2] (setting [4]) it was 780 nM.
Take `CO[C@H]1CC[C@H](NC/C=C/C(=O)Nc2ccc(C(=O)c3ccc4c(-c5cc6ncn(C)c6cc5C)cccn34)cc2C#N)CC1` [Example 4, (E)-N-(2-cyano-4-(8-(1,6-dimethyl-1H-benzo[d]imidazol-5-yl)indolizine-3-carbonyl)phenyl)-4-(((1r,4r)-4-methoxycyclohexyl)amino)but-2-enamide]: the half-maximal inhibitory concentration (IC50) was 23 nM in assay [1], 440 nM in assay [2] (setting [3]) and 300 nM in assay [2] (setting [4]).
